Source: ChEMBL document CHEMBL1158512, “The antimicrobial activity of compounds from the leaf and stem of Vitis amurensis against two oral pathogens” (2010)
≈ marks a conversion by molar mass, not a printed value. Calls of active or inactive are those of the source. The calls are words filed in the database; no cut-off is given here.

Legend:
Assay type in all cases: functional
Streptococcus sanguinis [1] = assay: Antimicrobial activity against Streptococcus sanguinis NCTC 9811 at 600 ug/ml after 20 hrs by disk diffusion method; conditions: for zone of inhibition at 600 µg/mL: NCTC 9811, 20 h, read-out: IZ
Streptococcus mutans [2] = assay: Antimicrobial activity against Streptococcus mutans KCTC 3065 after 20 hrs by plate dilution method; conditions: KCTC 3065, 20 h
Streptococcus mutans [3] = assay: Antimicrobial activity against Streptococcus mutans KCTC 3065 at 100 ug/ml after 20 hrs by disk diffusion method; conditions: for zone of inhibition at 100 µg/mL: KCTC 3065, 20 h, read-out: IZ
Streptococcus sanguinis [4] = assay: Antimicrobial activity against Streptococcus sanguinis NCTC 9811 at 200 ug/ml after 20 hrs by disk diffusion method; conditions: for zone of inhibition at 200 µg/mL: NCTC 9811, 20 h, read-out: IZ
Streptococcus mutans [5] = assay: Antimicrobial activity against Streptococcus mutans KCTC 3065 assessed as total bacterial adherence inhibition
Streptococcus mutans [6] = assay: Antimicrobial activity against Streptococcus mutans KCTC 3065 at 600 ug/ml after 20 hrs by disk diffusion method; conditions: for zone of inhibition at 600 µg/mL: KCTC 3065, 20 h, read-out: IZ
Streptococcus sanguinis [7] = assay: Antimicrobial activity against Streptococcus sanguinis NCTC 9811 at 100 ug/ml after 20 hrs by disk diffusion method; conditions: for zone of inhibition at 100 µg/mL: NCTC 9811, 20 h, read-out: IZ
Streptococcus sanguinis [8] = assay: Antimicrobial activity against Streptococcus sanguinis NCTC 9811 at 50 ug/ml after 20 hrs by disk diffusion method; conditions: for zone of inhibition at 50 µg/mL: NCTC 9811, 20 h, read-out: IZ
Streptococcus mutans [9] = assay: Antimicrobial activity against Streptococcus mutans KCTC 3065 at 50 ug/ml after 20 hrs by disk diffusion method; conditions: for zone of inhibition at 50 µg/mL: KCTC 3065, 20 h, read-out: IZ
Streptococcus sanguinis [10] = assay: Antimicrobial activity against Streptococcus sanguinis NCTC 9811 assessed as total bacterial adherence inhibition
Streptococcus sanguinis [11] = assay: Antimicrobial activity against Streptococcus sanguinis NCTC 9811 at 400 ug/ml after 20 hrs by disk diffusion method; conditions: for zone of inhibition at 400 µg/mL: NCTC 9811, 20 h, read-out: IZ
Streptococcus sanguinis [12] = assay: Antimicrobial activity against Streptococcus sanguinis NCTC 9811 after 20 hrs by plate dilution method; conditions: NCTC 9811, 20 h
Streptococcus mutans [13] = assay: Antimicrobial activity against Streptococcus mutans KCTC 3065 at 200 ug/ml after 20 hrs by disk diffusion method; conditions: for zone of inhibition at 200 µg/mL: KCTC 3065, 20 h, read-out: IZ
Streptococcus mutans [14] = assay: Antimicrobial activity against Streptococcus mutans KCTC 3065 at 400 ug/ml after 20 hrs by disk diffusion method; conditions: for zone of inhibition at 400 µg/mL: KCTC 3065, 20 h, read-out: IZ

`Oc1ccc(/C=C/c2cc(O)cc(O)c2)cc1` [RESVERATROL] showed a zone of inhibition at 600 µg/mL (Streptococcus sanguinis [1]) of 20 mm, an MBC (Streptococcus mutans [2]) of 50 µg/mL (≈ 219 µM) and an MIC (Streptococcus mutans [2]) of 50 µg/mL (≈ 219 µM). For the same molecule, the zone of inhibition at 100 µg/mL (Streptococcus mutans [3]) was < 15 mm, the zone of inhibition at 200 µg/mL (Streptococcus sanguinis [4]) was < 15 mm and the “Concentration for total adherence inhibition” value (Streptococcus mutans [5]) was 25 µg/mL. The zone of inhibition at 600 µg/mL (Streptococcus mutans [6]) was > 20 mm, the zone of inhibition at 100 µg/mL (Streptococcus sanguinis [7]) was < 11 mm and the zone of inhibition at 50 µg/mL (Streptococcus sanguinis [8]) was < 11 mm. For the same molecule, the zone of inhibition at 50 µg/mL (Streptococcus mutans [9]) was < 11 mm, the Activity (Streptococcus sanguinis [10]) was 100 µg/mL and the zone of inhibition at 400 µg/mL (Streptococcus sanguinis [11]) was < 15 mm. For the same molecule, the MBC (Streptococcus sanguinis [12]) was 100 µg/mL (≈ 438 µM), the MIC (Streptococcus sanguinis [12]) was 25 µg/mL (≈ 110 µM) and the zone of inhibition at 200 µg/mL (Streptococcus mutans [13]) was 20 mm. It also gave a zone of inhibition at 400 µg/mL (Streptococcus mutans [14]) of 20 mm.
With `Oc1ccc(C2[C@H]3c4cc(O)cc(O)c4[C@@H](c4ccc(O)cc4)[C@@H]2c2cc(O)cc(O)c23)cc1` (stereo not given in full) the zone of inhibition at 600 µg/mL (Streptococcus sanguinis [1]) was < 15 mm, the MBC (Streptococcus mutans [2]) was 200 µg/mL (≈ 440 µM) and the MIC (Streptococcus mutans [2]) was 100 µg/mL (≈ 220 µM). For the same molecule, the zone of inhibition at 100 µg/mL (Streptococcus mutans [3]) was < 11 mm, the zone of inhibition at 200 µg/mL (Streptococcus sanguinis [4]) was < 11 mm and the “Concentration for total adherence inhibition” value (Streptococcus mutans [5]) was 100 µg/mL. For the same molecule, the zone of inhibition at 600 µg/mL (Streptococcus mutans [6]) was 20 mm, the “inhibition zone (IZ)” value (Streptococcus sanguinis [7]) was “inactive” and the “inhibition zone (IZ)” value (Streptococcus sanguinis [8]) was “inactive”. For the same molecule, the “inhibition zone (IZ)” value (Streptococcus mutans [9]) was “inactive”, the Activity (Streptococcus sanguinis [10]) was >200 µg/mL and the zone of inhibition at 400 µg/mL (Streptococcus sanguinis [11]) was < 15 mm. The MBC (Streptococcus sanguinis [12]) was > 400 µg/mL, the MIC (Streptococcus sanguinis [12]) was > 400 µg/mL and the zone of inhibition at 200 µg/mL (Streptococcus mutans [13]) was < 15 mm. The zone of inhibition at 400 µg/mL (Streptococcus mutans [14]) was < 15 mm.
For `CC[C@H]1OC(=O)[C@H](C)[C@@H](O[C@H]2C[C@@](C)(OC)[C@@H](O)[C@H](C)O2)[C@H](C)[C@@H](O[C@@H]2O[C@H](C)C[C@H](N(C)C)[C@H]2O)[C@](C)(O)C[C@@H](C)C(=O)[C@H](C)[C@@H](O)[C@]1(C)O` [ERYTHROMYCIN], the MBC (Streptococcus mutans [2]) was < 1.5 µg/mL, the “Concentration for total adherence inhibition” value (Streptococcus mutans [5]) was 0.78 µg/mL and the Activity (Streptococcus sanguinis [10]) was 25 µg/mL. It also gave an MBC (Streptococcus sanguinis [12]) of 50 µg/mL (≈ 68.1 µM) and an MIC (Streptococcus sanguinis [12]) of 12.5 µg/mL (≈ 17 µM).
For `OC[C@H]1OC(Oc2cc(O)cc(/C=C/c3ccc(O)cc3)c2)[C@H](O)[C@@H](O)[C@@H]1O` (stereo not given in full), the “inhibition zone (IZ)” value (Streptococcus sanguinis [1]) was “inactive”, the “inhibition zone (IZ)” value (Streptococcus mutans [3]) was “inactive” and the “inhibition zone (IZ)” value (Streptococcus sanguinis [4]) was “inactive”. For the same molecule, the “inhibition zone (IZ)” value (Streptococcus mutans [6]) was “inactive”, the “inhibition zone (IZ)” value (Streptococcus sanguinis [7]) was “inactive” and the “inhibition zone (IZ)” value (Streptococcus sanguinis [8]) was “inactive”. For the same molecule, the “inhibition zone (IZ)” value (Streptococcus mutans [9]) was “inactive”, the “inhibition zone (IZ)” value (Streptococcus sanguinis [11]) was “inactive” and the “inhibition zone (IZ)” value (Streptococcus mutans [13]) was “inactive”. For the same molecule, the “inhibition zone (IZ)” value (Streptococcus mutans [14]) was “inactive”.
In the case of `Oc1cc(O)cc(/C=C/c2ccc(O)c(O)c2)c1` [PICEATANNOL], the zone of inhibition at 600 µg/mL (Streptococcus sanguinis [1]) is reported as > 20 mm, the MBC (Streptococcus mutans [2]) is reported as 100 µg/mL (≈ 409 µM) and the MIC (Streptococcus mutans [2]) is reported as 50 µg/mL (≈ 205 µM). The zone of inhibition at 100 µg/mL (Streptococcus mutans [3]) was < 15 mm, the zone of inhibition at 200 µg/mL (Streptococcus sanguinis [4]) was 20 mm and the “Concentration for total adherence inhibition” value (Streptococcus mutans [5]) was 50 µg/mL. For the same molecule, the zone of inhibition at 600 µg/mL (Streptococcus mutans [6]) was > 20 mm, the zone of inhibition at 100 µg/mL (Streptococcus sanguinis [7]) was < 15 mm and the zone of inhibition at 50 µg/mL (Streptococcus sanguinis [8]) was < 15 mm. For the same molecule, the zone of inhibition at 50 µg/mL (Streptococcus mutans [9]) was < 15 mm, the Activity (Streptococcus sanguinis [10]) was 50 µg/mL and the zone of inhibition at 400 µg/mL (Streptococcus sanguinis [11]) was > 20 mm. The MBC (Streptococcus sanguinis [12]) was 100 µg/mL (≈ 409 µM), the MIC (Streptococcus sanguinis [12]) was 50 µg/mL (≈ 205 µM) and the zone of inhibition at 200 µg/mL (Streptococcus mutans [13]) was 20 mm. For the same molecule, the zone of inhibition at 400 µg/mL (Streptococcus mutans [14]) was > 20 mm.
`Oc1ccc([C@H]2c3c(O)cc(O)cc3[C@H]3c4c(cc(O)c5c4[C@H]2[C@@H](c2ccc(O)cc2)[C@@H]5c2cc(O)cc(O)c2)O[C@@H]3c2ccc(O)cc2)cc1` [AMURESIN G] was tested, and the zone of inhibition at 600 µg/mL (Streptococcus sanguinis [1]) was < 15 mm, the MBC (Streptococcus mutans [2]) was 50 µg/mL (≈ 73.5 µM) and the MIC (Streptococcus mutans [2]) was 50 µg/mL (≈ 73.5 µM). For the same molecule, the zone of inhibition at 100 µg/mL (Streptococcus mutans [3]) was < 11 mm, the zone of inhibition at 200 µg/mL (Streptococcus sanguinis [4]) was < 15 mm and the “Concentration for total adherence inhibition” value (Streptococcus mutans [5]) was 25 µg/mL. The zone of inhibition at 600 µg/mL (Streptococcus mutans [6]) was < 15 mm, the zone of inhibition at 100 µg/mL (Streptococcus sanguinis [7]) was < 15 mm and the zone of inhibition at 50 µg/mL (Streptococcus sanguinis [8]) was < 11 mm. The “inhibition zone (IZ)” value (Streptococcus mutans [9]) was “inactive”, the Activity (Streptococcus sanguinis [10]) was 50 µg/mL and the zone of inhibition at 400 µg/mL (Streptococcus sanguinis [11]) was < 15 mm. The MBC (Streptococcus sanguinis [12]) was 100 µg/mL (≈ 147 µM), the MIC (Streptococcus sanguinis [12]) was 12.5 µg/mL (≈ 18.4 µM) and the zone of inhibition at 200 µg/mL (Streptococcus mutans [13]) was < 11 mm. The zone of inhibition at 400 µg/mL (Streptococcus mutans [14]) was < 15 mm.
For `OC[C@H]1O[C@@H](Oc2cc(O)cc(/C=C/c3ccc(O)c(O)c3)c2)[C@H](O)[C@@H](O)[C@@H]1O`, the “inhibition zone (IZ)” value (Streptococcus sanguinis [1]) was “inactive”, the “inhibition zone (IZ)” value (Streptococcus mutans [3]) was “inactive” and the “inhibition zone (IZ)” value (Streptococcus sanguinis [4]) was “inactive”. For the same molecule, the “inhibition zone (IZ)” value (Streptococcus mutans [6]) was “inactive”, the “inhibition zone (IZ)” value (Streptococcus sanguinis [7]) was “inactive” and the “inhibition zone (IZ)” value (Streptococcus sanguinis [8]) was “inactive”. For the same molecule, the “inhibition zone (IZ)” value (Streptococcus mutans [9]) was “inactive”, the “inhibition zone (IZ)” value (Streptococcus sanguinis [11]) was “inactive” and the “inhibition zone (IZ)” value (Streptococcus mutans [13]) was “inactive”. The “inhibition zone (IZ)” value (Streptococcus mutans [14]) was “inactive”.
For `Oc1ccc(/C=C/c2cc(O)cc3c2[C@H](c2cc(O)cc(O)c2)[C@@H](c2ccc(O)cc2)O3)cc1`, the zone of inhibition at 600 µg/mL (Streptococcus sanguinis [1]) was 20 mm, the MBC (Streptococcus mutans [2]) was 50 µg/mL (≈ 110 µM) and the MIC (Streptococcus mutans [2]) was 25 µg/mL (≈ 55 µM). The zone of inhibition at 100 µg/mL (Streptococcus mutans [3]) was < 15 mm, the zone of inhibition at 200 µg/mL (Streptococcus sanguinis [4]) was 20 mm and the “Concentration for total adherence inhibition” value (Streptococcus mutans [5]) was 25 µg/mL. The zone of inhibition at 600 µg/mL (Streptococcus mutans [6]) was > 20 mm, the zone of inhibition at 100 µg/mL (Streptococcus sanguinis [7]) was 20 mm and the zone of inhibition at 50 µg/mL (Streptococcus sanguinis [8]) was < 15 mm. For the same molecule, the zone of inhibition at 50 µg/mL (Streptococcus mutans [9]) was < 15 mm, the Activity (Streptococcus sanguinis [10]) was 50 µg/mL and the zone of inhibition at 400 µg/mL (Streptococcus sanguinis [11]) was 20 mm. The MBC (Streptococcus sanguinis [12]) was 50 µg/mL (≈ 110 µM), the MIC (Streptococcus sanguinis [12]) was 12.5 µg/mL (≈ 27.5 µM) and the zone of inhibition at 200 µg/mL (Streptococcus mutans [13]) was 20 mm. For the same molecule, the zone of inhibition at 400 µg/mL (Streptococcus mutans [14]) was > 20 mm.
